Assay results published in US20240132522A1, “HETEROCYCLIC COMPOUNDS AND METHODS OF USE THEREOF” (1cBio, Inc., priority 2022, published 2024).
Counter-ions that a name gives are not always drawn.

Molecular target: recombinant human PARP1 (Homo sapiens, UniProt P09874)
Test: PARP1 fluorescence polarization binding assay
Conditions: binding IC50, GST-tagged PARP1 20 nM, PARPi-FL probe 3 nM, 4 h at RT
Method: In some embodiments, the biological assay is described in the Examples herein. In some embodiments, the biological assay measures PARP-1 binding by way of fluorescence polarization measurements. In some embodiments, binding of a test compound to recombinant human PARP-1 reduces the amount of binding of a fluorescent probe, and consequently reduces the detected level of fluorescence polarization. In some test compound stock solutions are prepared in a solvent, e.g., DMSO, and are serially diluted into a range of concentrations, e.g., 15 concentrations, 14 concentrations, 13 concentrations, 12 concentrations, 11 concentrations, 10 concentrations, 9 concentrations, 8 concentrations, 7 concentrations, 6 concentrations, or 5 concentrations, by a dilution factor, e.g., a 10-fold dilution factor, a 9-fold dilution factor, an 8-fold dilution factor, a 7-fold dilution factor, a 6-fold dilution factor, a 5-fold dilution factor, a 4-fold dilution factor, a 3-fold dilution factor, or a 2-fold dilution factor. In some embodiments, the serial dilutions, e.g., 100 nL of serial dilution, 90 nL of serial dilution, 80 nL of serial dilution, 70 nL of serial dilution, 60 nL of serial dilution, 50 nL of serial dilution, 30 nL of serial dilution, 20 nL of serial dilution, or 10 nL of serial dilution, are added to a multi-welled plate, e.g., a 1536-well plate, a 384-well plate, or a 96-well plate. In some embodiments, PARP-1, e.g., GST-tagged PARP-1, is diluted in assay buffer, e.g., 50 μL of assay buffer, 40 μL of assay buffer, e.g., 30 μL of assay buffer, 20 μL of assay buffer, 10 μL of assay buffer, or 5 μL of assay buffer, and is added to the plate. In some embodiments, the plate is centrifuged, e.g., at 1000 rpm for 1 min, and incubated, e.g., incubated for 30 minutes at room temperature (RT). In some embodiments, a fluorescent probe, e.g., 10 μL of 6 nM PARPi-FL (TOCRIS, Cat #6461), is diluted in an assay buffer and is added to the plate. In some embodiments, the final concentrations of PARP-1 and fluorescent probe are 20 nM and 3 nM, respectively, in a total volume of 20 μL. In some embodiments, the plate is centrifuged, e.g., at 1000 rpm for 1 minute, and the assay plate is incubated, e.g., for 4 h at RT. In some embodiments, the samples in each well are read using a plate reader, e.g., an Envision instrument using excitation=480 nm, and emission wavelength=FITC FP-P pol 535 nm & FITC FP-S pol 535 nm). In some embodiments, percent inhibition is calculated from mP values using Inhibition (%)=[1−(mPc−mPL)/(mPH−mPL)]×100%, where mPc, mPL, and mPH are the mP values of test compound, Low controls, and High controls, respectively. In some embodiments, binding IC50 values are calculated using XLFit (equation 201: y=A+((B−A)/(1+((x/C)^D))), where A=bottom, B=top, C=IC50, and D=slope) with a floating top and bottom for curves.
Compounds of the present disclosure were tested in a PARP1 fluorescence polarization binding assay at Pharmaron (Beijing, P.R. China). In this biochemical assay, binding of test compound to recombinant human PARP1 reduces the amount of binding of a fluorescent probe, and consequently reduces the detected level of fluorescence polarization. Test compound stock solutions were prepared in DMSO and then serially diluted into 10 concentrations by 3-fold dilution in a 384-well plate using a TECAN EVO200. 60 nL of each dilution was transferred to the plate using an Echo550 (Labcyte), and then 10 μL 40 nM GST-tagged PARP1 (BPS Bioscience, Cat #80501), diluted in assay buffer (50 mM Tris pH 8.0, 0.001% Triton X-100, 10 mM MgCl2, 150 mM NaCl), was added to the plate. After a centrifugation at 1000 rpm for 1 min, the assay plate was incubated for 30 min at RT. 10 μL 6 nM PARPi-FL (TOCRIS, Cat #6461), diluted using assay buffer, was then added to the plate. The final concentrations of PARP1 and PARPi-FL were 20 nM and 3 nM, respectively, in a total volume of 20 μL. […]

Sequence of recombinant human PARP1 (P09874 whole entry): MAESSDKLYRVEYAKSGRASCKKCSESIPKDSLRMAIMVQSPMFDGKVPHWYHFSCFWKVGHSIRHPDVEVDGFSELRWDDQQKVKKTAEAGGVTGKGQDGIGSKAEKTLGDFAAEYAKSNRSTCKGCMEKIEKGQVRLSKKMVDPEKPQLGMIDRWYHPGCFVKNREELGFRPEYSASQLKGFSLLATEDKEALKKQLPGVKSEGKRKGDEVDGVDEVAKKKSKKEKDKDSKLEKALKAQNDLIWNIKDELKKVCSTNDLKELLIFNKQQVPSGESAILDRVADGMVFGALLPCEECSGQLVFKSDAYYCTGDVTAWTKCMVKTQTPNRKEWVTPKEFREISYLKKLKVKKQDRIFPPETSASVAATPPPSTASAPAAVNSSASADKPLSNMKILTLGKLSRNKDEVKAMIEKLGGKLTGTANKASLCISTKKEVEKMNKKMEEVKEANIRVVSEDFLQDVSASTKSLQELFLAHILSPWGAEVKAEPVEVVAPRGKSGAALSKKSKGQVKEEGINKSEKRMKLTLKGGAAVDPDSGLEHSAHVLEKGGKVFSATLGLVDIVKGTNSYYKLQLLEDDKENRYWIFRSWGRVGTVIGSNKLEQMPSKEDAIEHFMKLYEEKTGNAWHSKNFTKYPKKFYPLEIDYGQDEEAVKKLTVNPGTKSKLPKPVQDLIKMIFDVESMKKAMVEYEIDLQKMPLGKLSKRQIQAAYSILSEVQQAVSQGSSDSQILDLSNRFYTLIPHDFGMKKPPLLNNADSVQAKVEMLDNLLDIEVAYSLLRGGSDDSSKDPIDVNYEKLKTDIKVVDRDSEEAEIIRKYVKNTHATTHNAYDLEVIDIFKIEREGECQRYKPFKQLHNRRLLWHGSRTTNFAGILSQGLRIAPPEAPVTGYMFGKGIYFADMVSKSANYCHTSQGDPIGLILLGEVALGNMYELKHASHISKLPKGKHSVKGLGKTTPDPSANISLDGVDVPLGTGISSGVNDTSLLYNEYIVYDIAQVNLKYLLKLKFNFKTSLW

IC50 [nM]	Compound
100 to 3000	CCc1cc2ncc(CNC3CC(Nc4ccc(C(=O)NC)nc4)C3)cc2[nH]c1=O (stereo not shown) [Compound No. 29, 5-((3-(((7-ethyl-6-oxo-5,6-dihydro-1,5-naphthyridin-3-yl)methyl)amino)cyclobutyl)amino)-N-methylpicolinamide]
< 100	CCc1cc2ncc(CN3CC4(C3)CN(c3ccc(C(=O)NC)nc3)C4)cc2[nH]c1=O [Compound No. 9, 5-(6-((7-ethyl-6-oxo-5,6-dihydro-1,5-naphthyridin-3-yl)methyl)-2,6-diazaspiro[3.3]heptan-2-yl)-N-methylpicolinamide formate]
< 100	CCc1cc2ncc(CN3CCCN(c4ccc(C(=O)NC)nc4)CC3)cc2[nH]c1=O [Compound No. 6, 5-(4-((7-ethyl-6-oxo-5H-1,5-naphthyridin-3-yl)methyl)-1,4-diazepan-1-yl)-N-methylpyridine-2-carboxamide]

Compound	IC50 [nM]
CCc1cc2ncc(CN3CC4CN(c5ccc(C(=O)NC)nc5)CC4C3)cc2[nH]c1=O (stereo not shown) [Compound No. 7, 5-(5-((7-ethyl-6-oxo-5,6-dihydro-1,5-naphthyridin-3-yl)methyl)hexahydropyrrolo[3,4-c]pyrrol-2(1H)-yl)-N-methylpicolinamide]	100 to 3000
